pIC50: −log10 of the molar value. Read-outs that look alike come from different tables or passages of the source.
How the values were obtained:
USP25 = target: T1, USP25 (Homo sapiens, UniProt Q9UHP3); test: USP25 activity measured using ubiquitin-rhodamine 110 method; assay type: biochemical; conditions: for pIC50: purified USP25 15 nM, ubiquitin-rhodamine 110 125 nM, 30 min preincubation; for IC50(F)/IC50(E) USP25: ratio of IC50 of related 3-NH2 compound (F) to IC50 of 3-NHMe compound disclosed herein (E)
T1 construct: purchased R&D Systems
T1 sequence (Q9UHP3 1-1055): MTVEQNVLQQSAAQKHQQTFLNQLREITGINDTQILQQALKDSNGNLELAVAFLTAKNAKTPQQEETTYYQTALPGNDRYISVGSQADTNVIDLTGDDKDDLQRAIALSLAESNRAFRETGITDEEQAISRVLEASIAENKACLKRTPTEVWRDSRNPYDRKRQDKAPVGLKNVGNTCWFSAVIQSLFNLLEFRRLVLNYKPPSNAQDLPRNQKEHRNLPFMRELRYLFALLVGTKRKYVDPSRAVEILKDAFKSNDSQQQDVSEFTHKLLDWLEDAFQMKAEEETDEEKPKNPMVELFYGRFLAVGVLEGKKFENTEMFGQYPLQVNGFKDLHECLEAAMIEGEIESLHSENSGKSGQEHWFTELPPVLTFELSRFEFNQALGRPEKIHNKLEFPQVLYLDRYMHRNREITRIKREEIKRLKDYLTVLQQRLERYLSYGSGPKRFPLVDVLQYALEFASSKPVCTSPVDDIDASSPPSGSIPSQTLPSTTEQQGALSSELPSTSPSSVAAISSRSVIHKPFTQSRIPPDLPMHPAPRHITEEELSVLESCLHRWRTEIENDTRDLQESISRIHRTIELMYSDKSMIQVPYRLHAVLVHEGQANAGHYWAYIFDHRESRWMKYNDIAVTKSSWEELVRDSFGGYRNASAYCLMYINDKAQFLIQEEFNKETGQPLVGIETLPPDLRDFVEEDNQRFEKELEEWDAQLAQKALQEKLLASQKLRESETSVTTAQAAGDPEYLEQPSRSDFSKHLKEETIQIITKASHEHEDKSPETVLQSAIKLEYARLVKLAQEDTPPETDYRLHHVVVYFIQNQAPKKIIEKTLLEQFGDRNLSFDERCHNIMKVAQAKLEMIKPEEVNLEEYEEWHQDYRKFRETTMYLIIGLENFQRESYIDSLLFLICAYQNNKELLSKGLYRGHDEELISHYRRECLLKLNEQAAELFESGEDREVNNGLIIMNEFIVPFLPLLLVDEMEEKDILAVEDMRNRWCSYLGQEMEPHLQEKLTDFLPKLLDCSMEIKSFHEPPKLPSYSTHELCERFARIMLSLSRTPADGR
How it was run: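 Compound preincubated 30 min at room temperature with USP25 (15 nM final) in 20 mM Tris-HCl pH 8.0, 2 mM CaCl2, 3 mM BME, 0.01% Prionix, 0.01% Triton X-100, ≤0.5% DMSO. Ubiquitin-rhodamine 110 (125 nM) then added; fluorescence (ex 485/em 535 nm) read immediately. IC50 from % inhibition across concentrations.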

USP28 = target: T2, USP28 (Homo sapiens, UniProt Q96RU2); test: USP28 activity measured using ubiquitin-rhodamine 110 method; assay type: biochemical; conditions: for pIC50: purified USP28 4 nM, ubiquitin-rhodamine 110 125 nM, 30 min preincubation; for IC50(F)/IC50(E) USP28: ratio of IC50 of related 3-NH2 compound (F) to IC50 of 3-NHMe compound disclosed herein (E)
T2 construct: purchased R&D Systems
T2 sequence (Q96RU2 1-1077): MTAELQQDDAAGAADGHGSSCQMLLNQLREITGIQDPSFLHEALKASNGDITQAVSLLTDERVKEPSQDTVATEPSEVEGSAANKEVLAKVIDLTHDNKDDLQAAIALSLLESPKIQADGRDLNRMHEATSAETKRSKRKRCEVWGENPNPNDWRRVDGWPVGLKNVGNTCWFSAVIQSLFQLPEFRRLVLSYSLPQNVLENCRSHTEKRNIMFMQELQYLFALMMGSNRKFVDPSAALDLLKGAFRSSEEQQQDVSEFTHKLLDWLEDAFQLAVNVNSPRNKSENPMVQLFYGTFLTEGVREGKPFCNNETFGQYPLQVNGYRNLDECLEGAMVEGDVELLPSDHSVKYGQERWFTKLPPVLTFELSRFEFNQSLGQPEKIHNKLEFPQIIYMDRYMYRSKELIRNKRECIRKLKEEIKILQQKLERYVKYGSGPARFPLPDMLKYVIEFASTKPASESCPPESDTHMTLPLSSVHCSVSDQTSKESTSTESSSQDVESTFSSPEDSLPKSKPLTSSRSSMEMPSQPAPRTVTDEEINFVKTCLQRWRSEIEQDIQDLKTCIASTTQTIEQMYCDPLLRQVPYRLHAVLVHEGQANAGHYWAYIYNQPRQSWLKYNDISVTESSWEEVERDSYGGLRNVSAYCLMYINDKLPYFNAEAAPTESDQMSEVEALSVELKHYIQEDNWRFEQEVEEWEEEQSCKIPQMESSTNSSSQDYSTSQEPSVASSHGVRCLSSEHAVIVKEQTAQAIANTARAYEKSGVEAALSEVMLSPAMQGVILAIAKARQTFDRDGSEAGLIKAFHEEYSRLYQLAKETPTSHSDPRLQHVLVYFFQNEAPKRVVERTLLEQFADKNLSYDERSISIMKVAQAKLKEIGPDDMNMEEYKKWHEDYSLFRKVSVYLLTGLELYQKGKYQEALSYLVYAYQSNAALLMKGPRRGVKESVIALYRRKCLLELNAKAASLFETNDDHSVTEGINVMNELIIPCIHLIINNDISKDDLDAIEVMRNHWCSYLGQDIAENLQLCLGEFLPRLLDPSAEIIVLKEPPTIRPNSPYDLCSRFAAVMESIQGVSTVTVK
How it was run: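 Purified USP28 (4 nM final) preincubated with compounds 30 min at room temperature in Tris-HCl pH 8.0 buffer with CaCl2, BME, Prionix and Triton X-100 (DMSO ≤0.5%). Ubiquitin-rhodamine 110 added to 125 nM; fluorescence (ex 485/em 535 nm) read immediately, inhibition versus DMSO control used to calculate IC50.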

[1] = read-out: Inhibitory activity against USP25 (IC50)
[2] = read-out: Inhibitory activity against USP28 (IC50)
[3] = Inhibitory activity against USP25 (IC50)
[4] = Inhibitory activity against USP28 (IC50)

SMILES | pIC50 (USP25; [1]) | pIC50 (USP28; [2]) | pIC50 (USP25; [3]) | IC50(F)/IC50(E) USP25 (USP25) | pIC50 (USP28; [4]) | IC50(F)/IC50(E) USP28 (USP28)
CNc1c(C(=O)NCCc2ccc(N3C[C@H]4CC[C@@H](C3)N4)cc2)sc2nc(Cl)ccc12 [Compound I-82] | 6.00 to 7.00 | 6.00 to 7.00 |  |  |  | 
CNc1c(C(=O)N[C@@H]2Cc3ccc(N4CC5CCC(C4)N5)cc3C2)sc2nc(C)ccc12 [Compound I-83] | 5.00 to 5.30 | 6.00 to 7.00 |  |  |  | 
CNc1c(C(=O)N[C@H]2Cc3ccc(N4CC5CCC(C4)N5)cc3C2)sc2nc(C)ccc12 [Compound I-84] | < 5.00 | 5.30 to 6.00 |  |  |  | 
CNc1c(C(=O)N[C@H]2COc3cc(N4CC5CCC(C4)N5)ccc3C2)sc2nc(C)ccc12 [Compound I-85] |  |  | > 7.00 | >8 | > 7.00 | 8.8
CNc1c(C(=O)NC2COc3cc(N4CC5CCC(C4)N5)ccc3C2)sc2nc(C)ccc12 (stereo not shown) [Compound I-86] | 5.30 to 6.00 | 6.00 to 7.00 |  |  |  | 
CNc1c(C(=O)NC2CCc3cc(N4CC5CCC(C4)N5)ccc3C2)sc2nc(C)ccc12 (stereo not shown) [Compound I-89] | 5.00 to 5.30 | 5.30 to 6.00 |  |  |  | 
CNc1c(C(=O)N[C@H]2CCc3cc(N4CC5CCC(C4)N5)ccc3C2)sc2nc(C)ccc12 [Compound I-90] | 6.00 to 7.00 |  |  | >6 | > 7.00 | 5.5
CCc1ccc2c(NC)c(C(=O)N[C@H]3COc4cc(N5CC6CCC(C5)N6)ccc4C3)sc2n1 [Compound I-91] |  |  | > 7.00 |  | > 7.00 | 
CNc1c(C(=O)NCC(C)(C)c2ccc(N3CC4CCC(C3)N4)cc2F)sc2nc(C)ccc12 [Compound I-92] | < 5.00 | 5.30 to 6.00 |  |  |  | 
CNc1c(C(=O)NCCc2ccc(N3C[C@H]4CC[C@@H](C3)N4)cc2)sc2nc(N)ccc12 [Compound I-93, N-4-(3,8-diazabicyclo[3.2.1]octan-3-yl)phenethyl-6-amino-3-methylaminothiophene[2,3-b]pyridine-2-carboxamide] | 6.00 to 7.00 | 6.00 to 7.00 |  |  |  | 
CNc1ccc2c(NC)c(C(=O)NCCc3ccc(N4C[C@H]5CC[C@@H](C4)N5)cc3)sc2n1 [Compound I-94] | < 5.00 | 6.00 to 7.00 |  |  |  | 
CNc1c(C(=O)NCCc2ccc(N3C[C@H]4CC[C@@H](C3)N4)cc2)sc2nc(N)cc(C(F)F)c12 [Compound I-95] |  |  | > 7.00 |  | > 7.00 | 
